Data on two compounds can be found in US4012387A, “Benzo-[g]pyrido[2,1-b]quinazolinones” (Warner-Lambert Company, priority 1975, dated 1977).

Like-named read-outs stand apart in the source and are kept apart here. Where only a bound is given, the exact number is not on record here.

The experiment has as its system rat passive cutaneous anaphylaxis. The experiment is described as follows: rat passive cutaneous anaphylaxis test (PCA), procedure of Herzig. Type of experiment: in vivo. From the text:
Mansmann, Eds., John Wiley and Son, N.Y., 1975].
Effective dose 50% inhibition rat passive cutaneous anaphylaxis

The mark [1] stands for this setting: effective dose 50% inhibition, rat PCA, intravenous, read-out: ED50 -PCA (rat) iv.

By ED50 is commonly meant the midpoint of the dose-response relation. With `O=C(O)c1cc(=O)c2c(OCC(O)COc3cccc4oc(C(=O)O)cc(=O)c34)cccc2o1` [Intal, Cromoglycate, reference compound], the “ED50 -PCA (rat) ip.” value (effective dose 50% inhibition, rat PCA, intraperitoneal) is “inactive”. For the same compound, the ED50 under setting [1] fell in the range of 1 to 2 mg/kg. Also, where the note is “effective dose 50% inhibition, rat PCA, oral”, the “ED50 -PCA (rat) po.” value is “inactive”.

Take `O=C(O)c1ccc2nc3cc4ccccc4cc3c(=O)n2c1` [Example 1, 6-oxo-6H-benzo[g]pyrido[2,1-b]quinazoline-3-carboxylic acid]: the 50% effective dose (ED50) was 0.015 mg/kg under setting [1]; below 0.1 mg/kg (effective dose 50% inhibition, rat PCA, oral, read-out: ED50 -PCA (rat) po.); 0.015 mg/kg (ip, effective dose 50% inhibition, rat PCA, intraperitoneal, read-out: ED50 -PCA (rat) ip.). The “effectiveness compared with the commercial compound (Intal), i.v. administration” value (i.v., rat PCA, comparison in words) is reported as “many times as effective”. The “activity in rat PCA when given intraperitonially” value (intraperitoneal, result in words) is on record as “active”. Further, the “activity in rat PCA when given orally” value (oral, result in words) is given as “active”.
